Values of other authors, collected in patent US8703823B2, “Methods for treatment of migraine and symptoms thereof” (priority 2004, dated 2014).

How the values were obtained:
[1] = in vivo
[2] = individuals treated with trimethobenzamide for uncontrolled vomiting

Structure (SMILES)	Migraine prevention / antimigraine effect [1]	Occurrence of adverse diskinesia side effects [2] [%]
CCN(CC)CCNC(=O)c1cc(Cl)c(N)cc1OC [Metoclopramide, metoclopramide]	exerted an antimigraine effect	–
COc1cc(N)c(Cl)cc1C(=O)NC1CCN(CCCOc2ccc(F)cc2)CC1OC (stereo not drawn) [cisapride]	ineffective	–
COc1cc(C(=O)NCc2ccc(OCCN(C)C)cc2)cc(OC)c1OC.Cl [trimethobenzamide, N-[p-[2-(dimethylamino)ethoxy]benzyl]-3,4,5-trimethoxybenzamide monohydrochloride]	–	< 2
